Where “and” joins values, the source holds several entries; their conditions need not be identical. Equal values may be shown once.
What was measured:
LhgR = test: EMSA, effect of compounds on LhgR binding to the lhgO promoter region F1; design: species or system Pseudomonas putida W619; conditions: 50 mM compound, 10 nM F1, 60 nM LhgR
Outline: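 Purified LhgR was preincubated 15 min at 30 °C with candidate effectors (L-lysine, 5-aminovalerate, glutarate, L-2-HG, D-2-HG, 2-KG, succinate), then 30 min at 30 °C with 10 nM F1 or F2 DNA. Buffer: 10 mM Tris-HCl pH 7.4, 50 mM KCl, 10% glycerol, 1 mM DTT. Shift seen on 6% native PAGE with SYBR green I.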

[1] = test system: LHGFR3N7C expressed in E. coli BL21(DE3); test: Control biosensor LHGFR3N7C expressed in E. coli, response to added compounds; type: cell-based; conditions: Supplementary Fig. 14a
Protocol: (§1) To characterize the sensitivity and specificity of LHGFR expressed in E. coli BL21(DE3), 90 μL cell suspensions following 8 h carbon starvation were mixed with 10 μL increasing concentrations of L-2-HG or other compounds, and then added into a black 96-well plate (total 100 μL/per well), the fluorescence intensities were determined using an EnSight microplate reader (PerkinElmer, USA) and the following instrument settings: excitation at 430 nm, emission at 485 nm (mTFP) and 528 nm (Venus), time intervals of 5 min, the temperature at 37 °C, and shake at 180 rpm.

LHGFR0N7C [2] = test: Specificity of purified LHGFR0N7C, emission ratio with 240 μM compounds; type: binding, Pseudomonas putida W619; conditions: 240 μM compound
LhgO = test: Enzymatic assay of LhgO in crude extracts of P. putida KT2440 derivatives grown on different carbon sources (induction of lhgO under LhgR control); type: cell-based, Pseudomonas putida
Protocol: The cells were harvested at mid-log phase, washed twice and resuspended in phosphate-buffered saline (PBS), then lysed by sonication on ice after the addition of 1 mM phenylmethylsulfonyl fluoride (PMSF). […] Protein concentrations of the supernatants were determined using the Bradford protein assay kit (Sangon, China). […] The 800 μL reaction solution contained 0.1 mM […], 0.05 mM DCPIP, 0.2 mM phenazine methosulfate (PMS) in PBS and 40 μL crude extracts.

LHGFR0N3C = test: Specificity of purified LHGFR0N3C, emission ratio with 240 μM compounds; type: binding, Pseudomonas putida W619; conditions: 240 μM compound
LHGFR0N7C [3] = test: Influence of other compounds on the response of purified LHGFR0N7C to L-2-HG; type: binding, Pseudomonas putida W619; conditions: Suppl. Fig. 9b; L-2-HG alone or with the compound; three replicates
Outline: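 Purified L-2-HG biosensors were mixed 3:1 with test compounds in 50 mM Tris-HCl pH 7.4, excited at 430 nm, and the 528 nm (Venus)/485 nm (mTFP) emission was read. Responses were fitted with a Hill model giving apparent Kd and Hill slope.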

[4] = test system: LHGFR0N3C expressed in E. coli BL21(DE3); test: Specificity of LHGFR0N3C expressed in E. coli BL21(DE3), 1 mM compounds; type: cell-based; conditions: for Emission ratio: 1 mM compound, Fig. 5c
Protocol: as §1

[5] = test system: LHGFR0N7C expressed in HEK293FT cells; test: Specificity of LHGFR0N7C expressed in permeabilized HEK293FT cells, 1 mM compounds; type: cell-based, human (HEK293FT cells); conditions: Supplementary Fig. 17d; Control about 1
Protocol: To characterize the sensitivity and specificity of LHGFR expressed in HEK293FT cells, cells were trypsinized 48 h following transfection and suspended in 1× Hank’s balanced salt solution supplemented with 20 mM HEPES. […] Digitonin at a concentration of 10 μM was used to induce cell permeabilization and deplete intracellular L-2-HG for in vivo response curves construction. Then, the fluorescence intensities were determined by a SpectraMax i3 fluorescence plate reader (Molecular Devices, USA) with excitation at 430 nm and emission at 485 nm (mTFP) and 528 nm (Venus). Basal L-2-HG concentration in HEK293FT cells under physiological conditions was determined by substituting the emission ratios of non-permeabilized HEK293FT cells into the calibrated in vivo response curves.

## O=C(O)CC[C@@H](O)C(=O)O [D-2-HG]
LhgR
  Effect on LhgR binding to the lhgO promoter region F1: observed only in the presence of L-2-HG
[1]; time 0 min
  normalized emission ratio of control biosensor expressed in E. coli: 1.02 and 1.012 and 1.01 and 1.0239
[1]; time 5 min
  normalized emission ratio of control biosensor expressed in E. coli: 1.007 and 1.013 and 1.012 and 1.022
[1]; time 10 min
  normalized emission ratio of control biosensor expressed in E. coli: 1.011 and 1.012 (2×) and 1.02
[1]; time 15 min
  normalized emission ratio of control biosensor expressed in E. coli: 1.008 and 1.007 and 1.013 and 1.022
[1]; time 20 min
  normalized emission ratio of control biosensor expressed in E. coli: 1.004 and 1.013 and 1.022 and 1.028
[1]; time 25 min
  normalized emission ratio of control biosensor expressed in E. coli: 1.0101 and 1.011 and 1.02 and 1.024
[1]; time 30 min
  normalized emission ratio of control biosensor expressed in E. coli: 1.007 and 1.022 and 1.016 and 1.027
[1]; time 35 min
  normalized emission ratio of control biosensor expressed in E. coli: 1.021 and 1.0176 and 1.025 and 1.027
[1]; time 40 min
  normalized emission ratio of control biosensor expressed in E. coli: 1.019 (2×) and 1.013 and 1.028
[1]; time 45 min
  normalized emission ratio of control biosensor expressed in E. coli: 1.015 and 1.017 and 1.0244 and 1.023
[1]; time 50 min
  normalized emission ratio of control biosensor expressed in E. coli: 1.007 and 1.012 and 1.0275 and 1.019
[1]; time 55 min
  normalized emission ratio of control biosensor expressed in E. coli: 1.011 (2×) and 1.037 and 1.027
[1]; time 60 min
  normalized emission ratio of control biosensor expressed in E. coli: 1.016 and 1.014 and 1.0182 and 1.0226
[1]; time 65 min
  normalized emission ratio of control biosensor expressed in E. coli: 1.014 and 1.022 and 1.029 and 1.023
[1]; time 70 min
  normalized emission ratio of control biosensor expressed in E. coli: 1.021 and 1.015 and 1.038 and 1.03
[1]; time 75 min
  normalized emission ratio of control biosensor expressed in E. coli: 1.0229 and 1.021 and 1.034 and 1.027
[1]; time 80 min
  normalized emission ratio of control biosensor expressed in E. coli: 1.027 and 1.023 and 1.038 (2×)
[1]; time 85 min
  normalized emission ratio of control biosensor expressed in E. coli: 1.021 and 1.027 and 1.032 and 1.0274
[1]; time 90 min
  normalized emission ratio of control biosensor expressed in E. coli: 1.0277 and 1.033 and 1.04 and 1.032
LHGFR0N7C [2]
  Emission ratio: 1.984 and 1.994 and 1.98
LhgO; crude extract of DcsiRDlhgO-pME6032 grown in MSM with the compound as sole carbon source
  LhgO activity: 7.06E-04 and 6.93E-04 and 7.09E-04
LhgO; gene segment F2-lhgR-F1-lhgO in P. putida KT2440 derivatives
  Induction of lhgO expression / effector molecule of LhgR: neither D-2-HG nor glutarate can serve as the effector molecule of LhgR
LHGFR0N3C
  Emission ratio: 1.4562 and 1.441 and 1.426
LHGFR0N7C [3]
  Emission ratio: 2.616 and 2.6121 and 2.633
[4]; 0 min
  Emission ratio: 1.011 and 0.989 and 0.9926
[4]; 5 min
  Emission ratio: 1.03 and 1.001 and 1.013
[4]; 10 min
  Emission ratio: 1.043 and 1.03 and 1.027
[4]; 15 min
  Emission ratio: 1.0445 and 1.033 and 1.032
[4]; 20 min
  Emission ratio: 1.062 and 1.044 and 1.049
[4]; 25 min
  Emission ratio: 1.051 and 1.047 and 1.058
[4]; 30 min
  Emission ratio: 1.07 and 1.05 and 1.058
[4]; 35 min
  Emission ratio: 1.071 and 1.055 and 1.07
[4]; 40 min
  Emission ratio: 1.061 and 1.059 and 1.064
[4]; 45 min
  Emission ratio: 1.071 and 1.057 and 1.074
[4]; 50 min
  Emission ratio: 1.071 and 1.056 and 1.075
[4]; 55 min
  Emission ratio: 1.074 and 1.067 and 1.073
[4]; 60 min
  Emission ratio: 1.07 (2×) and 1.065
[4]; 65 min
  Emission ratio: 1.082 (2×) and 1.064
[4]; 70 min
  Emission ratio: 1.08 and 1.068 and 1.078
[4]; 75 min
  Emission ratio: 1.08 and 1.07 and 1.0822
[4]; 80 min
  Emission ratio: 1.068 and 1.078 and 1.077
[4]; 85 min
  Emission ratio: 1.078 and 1.065 and 1.085
[4]; 90 min
  Emission ratio: 1.07 and 1.071 and 1.074
[4]; 1 mM exogenous compound
  Increase of the emission ratio in E. coli BL21(DE3): could not
[5]
  Normalized emission ratio: 1.116 and 1.067 and 1.082

— article PMC8206213, “An L-2-hydroxyglutarate biosensor based on specific transcriptional regulator LhgR” (Nature Communications, 2021)
